From patent US9169252B2 (BRISTOL-MYERS SQUIBB COMPANY, priority 2014, dated 2015)
pEC50, pIC50: −log10 of the molar value. Structures can show the parent of a compound that is named as a salt. Where two headings read alike, the source gives them in different places.

How the values were obtained:
IRAK4 = IRAK4 (Homo sapiens (Human), UniProt Q9NWZ3); assay: IRAK4 Inhibition Assay; assay type: biochemical; settings: IRAK4 Inhibition Assay, ATP 500 μM, read-out: IRAK4 IC50
Method in brief: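 IRAK4 combined with fluorescent substrate and compounds, reacted 60 min at room temperature, stopped with 35 mM EDTA. Substrate and phosphorylated product separated electrophoretically on a Caliper LabChip 3000 mobility-shift reader.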

[1] = test system: TLR2 induced IL-6 in peripheral blood mononuclear cells (PBMCs); assay: PBMC TLR2 Induced IL-6 Assay; assay type: cell-based, human; settings: for pEC50: read-out: Cell EC50; for pIC50: read-out: Cell IC50
Method in brief: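 Lipoteichoic acid at 10 µg/ml served as TLR2 stimulus for 5 hours, following a 30-minute compound pretreatment at 37° C. Cells were Ficoll-isolated human PBMCs, 250000 cells/well, cultured in RPMI plus 10% heat-inactivated FCS.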

[2] = Homo sapiens, PBMC, PBMC TLR2 Induced IL-6 Assay, lipoteichoic acid stimulation, IL-6 by ELISA

Sequence of IRAK4 (Q9NWZ3 whole entry, species assumed): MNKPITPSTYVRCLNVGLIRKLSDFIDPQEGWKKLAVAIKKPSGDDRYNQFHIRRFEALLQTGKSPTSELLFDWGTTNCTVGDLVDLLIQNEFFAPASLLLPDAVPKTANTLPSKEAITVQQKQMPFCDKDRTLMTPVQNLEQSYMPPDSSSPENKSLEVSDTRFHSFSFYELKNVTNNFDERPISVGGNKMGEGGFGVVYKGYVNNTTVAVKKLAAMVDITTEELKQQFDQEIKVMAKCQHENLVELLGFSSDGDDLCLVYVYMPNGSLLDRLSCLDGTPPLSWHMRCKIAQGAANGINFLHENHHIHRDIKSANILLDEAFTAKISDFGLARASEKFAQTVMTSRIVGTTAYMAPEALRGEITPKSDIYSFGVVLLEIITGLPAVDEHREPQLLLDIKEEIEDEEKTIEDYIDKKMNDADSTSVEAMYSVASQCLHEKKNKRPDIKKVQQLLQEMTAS

| pIC50 (IRAK4) | Compound | pEC50 [1, 2] | other results |
| --- | --- | --- | --- |
| 8.19 | CC(C)Nc1cc(-n2ccc3cc(C#N)cnc32)ncc1C(=O)N[C@H]1CC[C@](O)(c2nccn2C)CC1 [Example 176, 6-(5-cyano-1H-pyrrolo[2,3-b]pyridin-1-yl)-N-((1 s,4s)-4-hydroxy-4-(1-methyl-1H-imidazol-2-yl)cyclohexyl)-4-(isopropylamino) nicotinamide] | 6.32 |  |
| 8.44 | CC(C)Nc1cc(-n2ccc3cc(C#N)cnc32)ncc1C(=O)N[C@H]1CC[C@](O)(c2cccnc2)CC1 [Example 177, 6-(5-cyano-1H-pyrrolo[2,3-b]pyridin-1-yl)-N-((1s,4s)-4-hydroxy-4-(pyridin-3-yl)cyclohexyl)-4-(isopropylamino)nicotinamide] | 6.45 |  |
| 8.43 | CC(C)Nc1cc(-n2ccc3cc(C#N)cnc32)ncc1C(=O)N[C@H]1CC[C@](O)(c2ccccn2)CC1 [Example 178, 6-(5-cyano-1H-pyrrolo[2,3-b]pyridin-1-yl)-N-((1s,4s)-4-hydroxy-4-(pyridin-2-yl)cyclohexyl)-4-(isopropylamino)nicotinamide] | 7.00 |  |
| 8.55 | CC(C)Nc1cc(-n2ccc3cc(C#N)cnc32)ncc1C(=O)N[C@H]1CC[C@](O)(c2ccncc2)CC1 [Example 179, 6-(5-cyano-1H-pyrrolo[2,3-b]pyridin-1-yl)-N-((1 s,4s)-4-hydroxy-4-(pyridin-4-yl)cyclohexyl)-4-(isopropylamino)nicotinamide] | 6.87 |  |
| 8.28 | CC(C)Nc1cc(-n2ccc3cc(C#N)cnc32)ncc1C(=O)N[C@H]1CC[C@](F)(c2nccs2)CC1 [Example 180, 6-(5-cyano-1H-pyrrolo[2,3-b]pyridin-1-yl)-N-((1s,4s)-4-fluoro-4-(thiazol-2-yl)cyclohexyl)-4-(isopropylamino)nicotinamide] | 6.68 |  |
| 8.37 | CC(C)Nc1cc(-n2ccc3cc(C#N)cnc32)ncc1C(=O)N[C@H]1CC[C@](F)(c2nccn2C)CC1 [Example 181, 6-(5-cyano-1H-pyrrolo[2,3-b]pyridin-1-yl)-N-((1 s,4s)-4-fluoro-4-(1-methyl-1H-imidazol-2-yl)cyclohexyl)-4-(isopropylamino) nicotinamide] | 6.82 |  |
| 8.74 | CC(C)Nc1cc(-n2ccc3cc(C#N)cnc32)ncc1C(=O)N[C@H]1CC[C@@](F)(c2nccn2C)CC1 [Example 182, 6-(5-cyano-1H-pyrrolo[2,3-b]pyridin-1-yl)-N-((trans)-4-fluoro-4-(1-methyl-1H-imidazol-2-yl)cyclohexyl)-4-(isopropylamino)nicotinamide] | 7.13 |  |
| 8.39 | CC(C)Nc1cc(-n2ccc3cc(C#N)cnc32)ncc1C(=O)NC1CCC2(CC1)NC(=O)NC2=O (centres unmarked) [Example 183, 6-(5-Cyano-1H-pyrrolo[2,3-b]pyridin-1-yl)-N-(2,4-dioxo-1,3-diazaspiro[4.5]decan-8-yl)-4-(isopropylamino)nicotinamide] | 6.75 |  |
| 8.26 | CC(C)Nc1cc(-n2ccc3cc(C#N)cnc32)ncc1C(=O)N[C@@H]1CC=C(c2ccncc2)CC1 [Example 184, (S)-6-(5-Cyano-1H-pyrrolo[2,3-b]pyridin-1-yl)-4-(isopropylamino)-N-(4-(pyridin-4-yl)cyclohex-3-en-1-yl)nicotinamide] | 6.36 |  |
| 8.47 | CC(C)Nc1cc(-n2ccc3cnc(N(C)C)nc32)ncc1C(=O)NC[C@@H](F)C(C)(C)O [Example 185, (R)-6-(2-(Dimethylamino)-7H-pyrrolo[2,3-d]pyrimidin-7-yl)-N-(2-fluoro-3-hydroxy-3-methylbutyl)-4-(isopropylamino)nicotinamide] | 6.46 |  |
| 8.89 | CC(C)Nc1cc(-n2ccc3cnc(N)nc32)ncc1C(=O)NC[C@@H](F)C(C)(C)O [Example 186, (R)-6-(2-Amino-7H-pyrrolo[2,3-d]pyrimidin-7-yl)-N-(2-fluoro-3-hydroxy-3-methylbutyl)-4-(isopropylamino)nicotinamide] | 7.36 |  |
| 8.72 | CC(C)Nc1cc(-n2ccc3cnc(NCC(C)(C)O)nc32)ncc1C(=O)NC[C@@H](F)C(C)(C)O [Example 187, (R)—N-(2-Fluoro-3-hydroxy-3-methylbutyl)-6-(2-((2-hydroxy-2-methylpropyl)amino)-7H-pyrrolo[2,3-d]pyrimidin-7-yl)-4-(isopropylamino)nicotinamide] | 7.07 |  |
| 8.77 | CC(C)Nc1cc(-n2ccc3cnc(NCCO)nc32)ncc1C(=O)NC[C@@H](F)C(C)(C)O [Example 188, (R)—N-(2-fluoro-3-hydroxy-3-methylbutyl)-6-(2-((2-hydroxyethyl)amino)-7H-pyrrolo[2,3-d]pyrimidin-7-yl)-4-(isopropylamino)nicotinamide] | 7.24 |  |
| 8.32 | CC(C)Nc1cc(-n2ccc3cnc(N4CC[C@H](O)C4)nc32)ncc1C(=O)NC[C@@H](F)C(C)(C)O [Example 189, N—((R)-2-fluoro-3-hydroxy-3-methylbutyl)-6-(2-((S)-3-hydroxypyrrolidin-1-yl)-7H-pyrrolo[2,3-d]pyrimidin-7-yl)-4-(isopropylamino)nicotinamide] | 7.12 |  |
| 8.33 | CC(C)Nc1cc(-n2ccc3cnc(N4CC[C@@H](O)C4)nc32)ncc1C(=O)NC[C@@H](F)C(C)(C)O [Example 190, N—((R)-2-fluoro-3-hydroxy-3-methylbutyl)-6-(2-((R)-3-hydroxypyrrolidin-1-yl)-7H-pyrrolo[2,3-d]pyrimidin-7-yl)-4-(isopropylamino)nicotinamide] | 6.92 |  |
| 7.83 | CC(C)Nc1cc(-n2ncc3cc(C#N)cnc32)ncc1C(=O)NC[C@@H](F)C(C)(C)OP(=O)(O)O [Example 191, (R)-4-(6-(5-Cyano-1H-pyrazolo[3,4-b]pyridin-1-yl)-4-(isopropylamino)nicotinamido)-3-fluoro-2-methylbutan-2-yl dihydrogen phosphate] | 5.00 |  |
|  | CC(C)Nc1cc(-n2ncc3cc(C#N)cnc32)ncc1C(=O)NC[C@@H](F)C(C)(C)O [Example 192, (R)-6-(5-Cyano-1H-pyrazolo[3,4-b]pyridin-1-yl)-N-(2-fluoro-3-hydroxy-3-methylbutyl)-4-(isopropylamino)nicotinamide, hydrochloride] |  | pIC50 (IRAK4; hydrochloride): 8.59; pEC50 ([1]; PBMC TLR2 Induced IL-6 Assay, lipoteichoic acid stimulation, IL-6 by ELISA, hydrochloride): 6.92 |
| 8.47 | CC[C@@H](C)Nc1cc(-n2ncc3cc(C#N)cnc32)ncc1C(=O)NCCC(C)(C)O [Example 193, (R)-4-(sec-Butylamino)-6-(5-cyano-1H-pyrazolo[3,4-b]pyridin-1-yl)-N-(3-hydroxy-3-methylbutyl)nicotinamide] |  | pIC50 [1, 2]: 6.54 |

| pIC50 (IRAK4) | Compound | pEC50 [1, 2] | other results |
| --- | --- | --- | --- |
| 7.71 | COc1cnc2c(cnn2-c2cc(NC(C)C)c(C(=O)NC[C@@H](F)C(C)(C)O)cn2)c1 [Example 195] | 6.47 | pIC50 [1, 2]: 6.19 |
| 7.98 | CC(C)Nc1cc(-n2ncc3cc(C#N)cnc32)ncc1C(=O)NC[C@H](F)C(C)(C)O [Example 196] | 6.52 | pIC50 [1, 2]: 6.48 |
| 8.09 | CC(C)NC(=O)[C@H](F)CNC(=O)c1cnc(-n2ncc3cc(C#N)cnc32)cc1NC(C)C [Example 197] | 6.53 |  |
| 8.47 | COC1CCC(NC(=O)c2cnc(-n3ncc4cc(C#N)cnc43)cc2NC(C)C)CC1 (centres unmarked) [Example 198] | 6.87 |  |
| 8.20 | CCCCNC(=O)c1cnc(-n2ncc3cc(C#N)cnc32)cc1NC(C)C [Example 199] | 6.55 |  |
| 8.55 | COC(C)(C)[C@H](F)CNC(=O)c1cnc(-n2ncc3cc(C#N)cnc32)cc1NC(C)C [Example 200] | 7.10 |  |
| 7.79 | CC(C)Nc1cc(-n2ncc3cc(C#N)cnc32)ncc1C(=O)NCCCN1CCOCC1 [Example 201] | 6.23 |  |
| 8.31 | CC(C)Nc1cc(-n2ncc3cc(C#N)cnc32)ncc1C(=O)NCCN1CCOCC1 [Example 204] | 6.76 |  |
| 7.84 | CC(C)Nc1cc(-n2ncc3cc(C#N)cnc32)ncc1C(=O)NCC(=O)N1CCOCC1 [Example 206] | 7.07 |  |
| 7.99 | COC(=O)CCNC(=O)c1cnc(-n2ncc3cc(C#N)cnc32)cc1NC(C)C [Example 207] | 6.64 |  |
| 8.51 | [2H]C([2H])([2H])OC(C)(C)[C@H](F)CNC(=O)c1cnc(-n2ncc3cc(C#N)cnc32)cc1NC(C)C [Example 210] | 6.69 |  |
| 8.09 | CC(C)Nc1cc(-n2ncc3cc(C#N)cnc32)ncc1C(=O)NCCN1CCS(=O)(=O)CC1 [Example 211] | 7.06 |  |
| 7.91 | CCNC(=O)CCNC(=O)c1cnc(-n2ncc3cc(C#N)cnc32)cc1NC(C)C [Example 212] | 6.72 |  |
| 7.83 | CC(C)Nc1cc(-n2ncc3cc(C#N)cnc32)ncc1C(=O)NCCCc1ncn[nH]1 [Example 213] | 6.37 |  |
| 7.87 | Cc1cnc2c(cnn2-c2cc(NC(C)C)c(C(=O)N[C@H]3CC[C@H](C(C)(C)O)CC3)cn2)c1 [Example 214] | 6.68 |  |
| 8.43 | CCOC(C)(C)[C@H](F)CNC(=O)c1cnc(-n2ncc3cc(C#N)cnc32)cc1NC(C)C [Example 215] | 6.84 |  |
| 8.35 | CC(C)Nc1cc(-n2ncc3cc(C#N)cnc32)ncc1C(=O)Nc1ccc(N2CCOCC2)nc1 [Example 216] | 6.60 |  |

| Compound | pIC50 (IRAK4) | pEC50 [1, 2] | other results |
| --- | --- | --- | --- |
| CCOP(=O)(CCNC(=O)c1cnc(-n2ncc3cc(C#N)cnc32)cc1NC(C)C)OCC [Example 208] | 7.80 |  | pEC50 ([1]; Homo sapiens, PBMC): 6.62 |
